Assay results reported in patent US7214668B2, “Phosphonic acid based prodrugs of PMEA and its analogues” (Metabasis Therapeutics, Inc., priority 2002, dated 2007).
Several values for one entry are separate records, joined by “and”; a condition that tells them apart may be missing. Identical values can stand only once. Like-named read-outs stand apart in the source and are kept apart here.

Tests used:
[1] = tested on: freshly isolated rat hepatocytes; conditions: 250 μM prodrug
Procedure: PMEA prodrugs were tested.
Hepatocytes were prepared from fed Sprague-Dawley rats (250–300 g) according to the procedure of Berry and Friend (Berry, M. N. Friend, D. S., J. Cell Biol. 43:506–520 (1969)) as modified by Groen (Groen, A. K. et al., Eur. J. Biochem 122:87–93 (1982)). Hepatocytes (60 mg/ml wet weight, >85% trypan blue viability) were incubated in 2 ml of krebs-bicarbonate buffer containing 20 mM glucose, and 1 mg/ml BSA for 4 hours in the presence of 250 μM PMEA prodrugs (from 25 mM stock solutions of prodrugs in methanol). At appropriate time points throughout the incubation (0, 1, 2, 4 hours), 400-μl aliquots of the cell suspension were taken and centrifuged through a silicon/mineral oil layer into 10% perchloric acid to extract intracellular nucleotides. The acidic cell extracts were neutralized with 0.3 volumes of 3M KOH/3M […] before evaluating PMEApp levels by ion exchange HPLC (Hewlett Packard 1050) using a Whatman Partisphere SAX (5 μm, 4.6×125 mm) column. Samples were loaded onto the column in 0.3M-ammonium phosphate buffer pH 3.5 and eluted from the column with a gradient to 0.8 M ammonium phosphate pH 3.5.

[2] = PMEApp accumulation in liver organ following oral administration to normal fasted rats; format: in vivo, rat; conditions: 30 mg/kg PMEA equivalents p.o.
Procedure: PMEA prodrugs were tested in vivo to identify prodrugs with suitable oral bioavailability and favorable intrahepatic activation rates.
Following oral administration of 30-mg/kg prodrug (PMEA equivalents) to normal, fasted rats, liver organ samples were freeze-clamped at 8 hr. […] The retention time of PMEApp was 18.6 minutes.

human liver microsomes = experiment: Kinetics of activation of Compound 4 to PMEA by human liver microsomes; format: in vitro ADME; conditions: 2 mg/mL human liver microsomes, 10 minutes, 37° C.
Procedure: The kinetics of activation of Compound 4 by the microsomal fraction of human liver were determined.
Human liver microsomes were purchased from In Vitro Technologies (IVT). Lot 1011 was prepared from a pool of 10 male donors with documented CYP3A4 activity (testosterone 6β-hydroxylation rate of 5.7 nmol/mg/min; IVT). […] Following a 2-minute preincubation at 37° C., reaction mixtures containing 100 mM KH2PO4, 2 mg/mL human liver microsomes, and 0, 30, 60, 100, 200 and 400 μM Compound 4 were started by addition of NADPH to 2 mM. The reaction was carried out for 10 minutes in an Eppendorf Thermomixer 5436 at 37° C., speed 6. […] Reactions were terminated by the addition of 1.5 volumes of methanol and extracts were pelleted at 14,000 rpm in an Eppendorf microfuge for 20 minutes. The supernatants (200 μl) were evaporated under vacuum and heat to dryness before resuspending in 80 μL buffer A (see below). Spiked standards of 9-[2-(phosophonomethoxy)ethyl]adenine, (PMEA, lot 980397, Metabasis Therapeutics) were prepared in the reaction mixture, and quenched and processed in an identical fashion. The ion-pairing buffer (Buffer A) consisted of 10 mM ammonium phosphate and 2.5 mM octyltriethylammonium phosphate, pH 5.5. After resuspension, samples were analyzed for PMEA by reverse phase HPLC. […]

[3] = Plasma and urine PMEA following oral Compound 4 and bis POM PMEA in rats; format: in vivo, rat; conditions: 30 mg/kg PMEA equivalents p.o.
Procedure: PMEA levels (0–12 h) were quantified in plasma by fluorescence HPLC following chloroacetaldehyde derivatization. PMEA levels in urine were quantified 48 hours after treatment.
Plasma drug levels: PMEA was determined in plasma by a modification of the procedure described in the literature (Shaw J P, Louie M S, Krishnamurthy V V, Arimilli M N, Jones R J, Bidgood A M, Lee W A, & Cundy K C, Drug Metabolism and Disposition, 25:362–366 (1997)). Plasma (100 μL) samples were extracted with 2 volumes of 0.1% TFA in acetonitrile. Following centrifugation to remove the precipitate, the supernatant was evaporated to dryness. The dried plasma was reconstituted with 200 μL of the derivatization cocktail consisting of 0.34% chloroacetaldehyde in 100 mM sodium acetate pH 4.5 and incubated at 95° C. for 40 min. The samples were evaporated to dryness and reconstituted with mobile phase for analysis by HPLC. The derivatized PMEA was analyzed by an HPLC system (Hewlett Packard 1090) consisting of a Beckman Ultrasphere ODS 4.6×150 mm (5 μm) column developed with a 20-min gradient of 0–30% acetonitrile in 20 mM potassium phosphate pH 6.2. Fluorescence was monitored at an excitation and emission wavelength of 240 and 420 nm, respectively. The column temperature was 40° C. and the flow rate was 1.5 mL/min. The derivatized PMEA was detected and quantified by comparison to an authentic standard prepared in plasma and eluted at approximately 6 minutes. The limit of quantitation of PMEA, was 0.25 μg/mL.
Urinary excretion studies: The percent excretion of PMEA in urine was assessed by a modification of a previously described procedure (Russell J W, Marrero D, Whiterock V J, & Klunk L J, J Chromatog, 572:321–326 (1991)). Aliquots (0.25–0.5 mL) of urine samples and spiked standards were incubated with an equal volume of 17% (v/v) of 50% chloroacetaldehyde in 100 mM sodium acetate pH 4.5 at 50° C. for 4 hrs. Following centrifugation, the supernatant was analyzed by the HPLC method described in the previous section.

[4] = Pharmacokinetics and oral bioavailability in beagle dog; format: in vivo
Procedure: Following an i.v. bolus and oral administration of 8 and 40 mg/kg (prodrug equivalent dose), respectively, of Compound 4 in PEG-400 to male beagle dogs (n=4), blood samples were collected at the following times: 5, 15, 30, 45 min and 1, 2, 4, 6, 8, 12, and 24 hrs post each dosing occasion. In addition, urine was collected over the following intervals: 0–12, 12–24, 24–48, and 48–72 hrs. Intact Compound 4 and PMEA were measured in the plasma and urine samples using an LC-MS/MS method. PK parameters were determined by non-compartmental analysis.

[5] = tested on: freshly isolated rat hepatocytes; experiment: Hepatotoxicity parameters in isolated normal and dexamethasone-induced rat hepatocytes
Procedure: Normal fed Sprague-Dawley rats weighing 280–310 g were administered dexamethasone intraperitoneally at 50 mg/kg once a day for four days. Dexamethasone was purchased from Sigma (lot#119H1328) and formulated as a suspension in corn oil (Sigma lot#107H1649) at 50 mg/mL. On the fifth day rats were used for hepatocyte isolations. […] Effects on glutathione levels were assessed by the DTNB (Ellman's reagent) method and viability was determined by the trypan blue exclusion assay and hepatic enzyme leakage assays (LDH, AST). […] Both assays were adapted from the protocol insert for a test tube assay to a microtiter plate assay.

[6] = Tissue distribution of PMEA equivalents after oral tritiated Compound 4 and bis POM PMEA in rats
Procedure: Total tritium counts were analyzed in solubilized samples of liver organ, kidney, plasma, urine, red blood cells, small intestine, as well as small intestine contents and feces obtained at various time points over 24 hours. Liver organ specificity was assessed by comparison of the temporal profiles of total tritium in liver organ versus kidney, small intestine, plasma, and red blood cells. Metabolite profiles in perchloric acid extracts of liver organ, kidney, small intestine, feces and urine were analyzed by HPLC.

[7] = 40 mg/kg p.o. vs 8 mg/kg i.v., dog
[8] = 1 mM Compound 4, normal rat hepatocytes

Nc1ncnc2c1ncn2CCOCP1(=O)OCCC(c2cccc(Cl)c2)O1 (racemic) [Compound 4]
Rat Hepatocytes, PMEApp formation, 250 μM, AUC 0–4 h [1]: 109.3 nmol·h/g
Rats, PMEApp levels in liver organ @ 8 hr., 30 mg/kg, p.o. [2]: 6.6 nmol/g
Km (human liver microsomes): 11 µM
AUC0-12h of PMEA in plasma ([3]; fasted rats): 3.5 nmol·h/mL
Fold lower plasma PMEA AUC0-12h than following bis POM PMEA ([3]; rats): 6 fold
Fold lower plasma PMEA Cmax than following bis POM PMEA ([3]; rats): 13 fold
Fold lower urinary levels of PMEA than following bis POM PMEA ([3]; rats): 5 fold
Urinary levels of PMEA ([3]; rats, urine 48 hours after treatment): 4.1 % dose
Tolerability (signs of ill health or mortality) ([4]; 8 mg/kg i.v. bolus and 40 mg/kg oral in PEG-400, male beagle dogs): well tolerated
Mean residence time (MRTiv) ([4]; 8 mg/kg i.v. bolus, dog): 1.0 h
Plasma clearance ([4]; 8 mg/kg i.v. bolus, dog): 1.77 L/h/kg
Volume of distribution (Vss) ([4]; 8 mg/kg i.v. bolus, dog): 1.70 L/kg
Mean terminal elimination half-life t1/2 of intact prodrug, i.v. ([4]; 8 mg/kg i.v. bolus, dog plasma): 48 min
i.v. dose excreted in the urine as PMEA ([4]; 8 mg/kg i.v., dog): 2%
i.v. dose excreted in the urine as intact Compound 4 ([4]; 8 mg/kg i.v., dog): approximately 30%
OBAV based on dose normalized oral-to-i.v. AUC ratios [4, 7]: 112%
OBAV based on urinary excretion of Compound 4 [4, 7]: 82%
Half-life of PMEA after oral dosing of the prodrug ([4]; 40 mg/kg p.o., dog): 5.4 h
Mean peak plasma concentration (Cmax) of intact prodrug, oral ([4]; 40 mg/kg p.o., dog): 10.2 µg/mL
Mean plasma Cmax of PMEA following oral administration ([4]; 40 mg/kg p.o., dog): 0.24 µg/mL
Terminal t1/2 after p.o. dosing ([4]; 40 mg/kg p.o., dog): 1.0 h
Tmax of PMEA following oral administration ([4]; 40 mg/kg p.o., dog): 1.4 h
Tmax of intact prodrug, oral ([4]; 40 mg/kg p.o., dog): 48 min and 48.6 min
p.o. dose excreted in the urine as PMEA ([4]; 40 mg/kg p.o., dog): 1.7%
p.o. dose excreted in the urine as intact prodrug ([4]; 40 mg/kg p.o., dog): 40%
Cmax ([4]; 40 mg/kg p.o., dog, read-out: Mean peak plasma concentration (Cmax) of intact prodrug, oral): ~24 µM
Cmax ([4]; 40 mg/kg p.o., dog, read-out: Mean plasma Cmax of PMEA following oral administration): ~0.88 µM
% F (orally bioavailable) ([4]; beagle dog, conclusion): ~100%
Fold reduction of systemic PMEA exposure (dose-normalized plasma AUC) versus bis POM PMEA literature ([4]; dog): 18.8 fold
PMEA AUC (dose-normalized plasma) ([4]; dog, after Compound 4): 0.58
Viability or hepatic enzyme leakage following glutathione depletion ([5]; 250 μM and 1 mM, hepatocytes from dexamethasone pre-treated rats): no significant changes
Glutathione reduction, 250 μM ([5]; 250 μM, hepatocytes from dexamethasone pre-treated rats, 2-hour incubation): 50%
Glutathione levels, normal hepatocytes [5, 8]: no significant decrease
Viability or hepatic enzyme leakage, normal hepatocytes [5, 8]: no significant changes
Glutathione reduction, 1 mM ([5]; 1 mM, hepatocytes from dexamethasone pre-treated rats, 2-hour incubation): > 95%
Compound 4/bisPOM PMEA (fold difference), Kidney ([6]; 30 mg/kg PMEA equivalents p.o.): 0.26 fold
Compound 4/bisPOM PMEA (fold difference), Liver organ ([6]; 30 mg/kg PMEA equivalents p.o.): 3.1 fold and 3.11 fold
Compound 4/bisPOM PMEA (fold difference), Small Intestine ([6]; 30 mg/kg PMEA equivalents p.o.): 0.04 fold
Fold decrease of exposure of PMEA equivalents in kidney relative to bis POM PMEA ([6]; 30 mg/kg PMEA equivalents p.o.): 3.8 fold
Fold decrease of exposure of PMEA equivalents in small intestine relative to bis POM PMEA ([6]; 30 mg/kg PMEA equivalents p.o.): 25 fold
Dose found as intact prodrug in feces ([6]; after 24 hours, p.o.): ~60%
